Test results: publication PMC6301270 (MedChemComm, 2018)

What follows are molecules tested on T.b. brucei (strain 427) bloodstream form parasites (assay: T.b. brucei single concentration screen (10 μM)). Conditions: Trypanosoma brucei, read-out: T.b.brucei % viability (10 µM).

Row | Structure (SMILES) | viability at 10 µM [%]
1 | CCOc1ccccc1C(=O)Nc1cccc(-c2nc3ncccn3c2C)c1 [MMV019790, CCOc1ccccc1C(=O)Nc2cccc(c2)c3nc4ncccn4c3C] | 103
2 | Cc1ccc2cc(C3NC(=O)c4ccccc4N3)c(Cl)nc2c1 (stereo not shown) [MMV019807, Cc1ccc2cc(C3NC(=O)c4ccccc4N3)c(Cl)nc2c1] | 113
3 | O=C(Nc1ccnc(-c2cccnc2)n1)c1cc(C(F)(F)F)cc(C(F)(F)F)c1 [MMV019838, FC(F)(F)c1cc(cc(c1)C(F)(F)F)C(=O)Nc2ccnc(n2)c3cccnc3] | 106
4 | Cc1nn(C)cc1C(C)Nc1nncc(-c2ccc(C(F)(F)F)cc2)n1 (stereo not shown) [MMV019993, CC(Nc1nncc(n1)c2ccc(cc2)C(F)(F)F)c3cn(C)nc3C] | 104
5 | COc1cccc(CC(=O)N2CCC(n3c(C)nc4ccc(F)cc43)CC2)c1 [MMV020081, COc1cccc(CC(=O)N2CCC(CC2)n3c(C)nc4ccc(F)cc34)c1] | 99
6 | CC1CC1C(=O)NC1CCN(CC2(c3ccccc3)CCCCC2)CC1 (stereo not shown) [MMV020120, CC1CC1C(=O)NC2CCN(CC3(CCCCC3)c4ccccc4)CC2] | 109
7 | CNC(=O)c1cc(S(=O)(=O)N2CCN(c3ccccn3)CC2)cs1 [MMV020136, CNC(=O)c1cc(cs1)S(=O)(=O)N2CCN(CC2)c3ccccn3] | 97
8 | Cc1cc(C(=O)Nc2ccc(-c3ccccc3)cc2)no1 [MMV020152, Cc1onc(c1)C(=O)Nc2ccc(cc2)c3ccccc3] | 85
9 | CC(C)NCC(=O)Nc1cccc(C(=O)Nc2cccc(C(F)(F)F)c2)c1 [MMV020165, CC(C)NCC(=O)Nc1cccc(c1)C(=O)Nc2cccc(c2)C(F)(F)F] | 107
10 | Cc1ccc(NC(=O)c2cc(S(=O)(=O)NC(C)(C)C)ccc2C)nc1 [MMV020289, Cc1ccc(NC(=O)c2cc(ccc2C)S(=O)(=O)NC(C)(C)C)nc1] | 93
11 | CC(C(=O)N1CCCC1)N1CCN(S(=O)(=O)c2ccc(C(C)(C)C)cc2)CC1 (stereo not shown) [MMV020291, CC(N1CCN(CC1)S(=O)(=O)c2ccc(cc2)C(C)(C)C)C(=O)N3CCCC3] | 95
12 | Cc1nnc(NC(=O)c2cn(-c3ccccc3)nc2-c2ccccc2C)o1 [MMV020320, Cc1oc(NC(=O)c2cn(nc2c3ccccc3C)c4ccccc4)nn1] | 46
13 | COc1ccccc1C(C)NCC(=O)Nc1cc(C(F)(F)F)ccc1Cl (stereo not shown) [MMV020321, COc1ccccc1C(C)NCC(=O)Nc2cc(ccc2Cl)C(F)(F)F] | 106
14 | CC1CCCN(C(=O)C(C)Nc2cc(Cl)ccc2N2CCOCC2)C1 (stereo not shown) [MMV020388, CC(Nc1cc(Cl)ccc1N2CCOCC2)C(=O)N3CCCC(C)C3] | 95
15 | Cc1ccc(Oc2ccc(NC(=O)CNc3ccccc3N3CCCC3=O)cc2)cc1 [MMV020512, Cc1ccc(Oc2ccc(NC(=O)CNc3ccccc3N4CCCC4=O)cc2)cc1] | 95
16 | COc1ccccc1CNC(=O)c1cc(C2CC2)nc2c1cnn2C(C)C [MMV020517, COc1ccccc1CNC(=O)c2cc(nc3c2cnn3C(C)C)C4CC4] | 93
17 | Cc1cc2ccccc2n1CC(=O)N1CC(C(=O)N2CCCCC2)Oc2ccccc21 (stereo not shown) [MMV020520, Cc1cc2ccccc2n1CC(=O)N3CC(Oc4ccccc34)C(=O)N5CCCCC5] | 69
18 | O=C(NC1CC1)c1ccc(N2CCOc3ccc(Cl)cc32)s1 [MMV020537, Clc1ccc2OCCN(c3ccc(s3)C(=O)NC4CC4)c2c1] | 97
19 | CC(C)C(NC(=O)Cc1cccc2ccccc12)C(=O)Nc1cccc(C#N)c1 (stereo not shown) [MMV020591, CC(C)C(NC(=O)Cc1cccc2ccccc12)C(=O)Nc3cccc(c3)C#N] | 93
20 | Cc1noc(C)c1C(=O)N1CCCC(c2[nH]c3c(C)cccc3c2-c2ccncc2)C1 (stereo not shown) [MMV020623, Cc1onc(C)c1C(=O)N2CCCC(C2)c3[nH]c4c(C)cccc4c3c5ccncc5] | 78
21 | COc1ccc(-c2cncc3ccc(C(=O)NCCCn4ccnc4)nc23)cc1 [MMV020670, COc1ccc(cc1)c2cncc3ccc(nc23)C(=O)NCCCn4ccnc4] | 51
22 | COc1ccc(Cl)cc1NC(=O)CN(C)C(=O)c1cnn(-c2ccccc2)n1 [MMV020710, COc1ccc(Cl)cc1NC(=O)CN(C)C(=O)c2cnn(n2)c3ccccc3] | 103
23 | CC(C)(C)c1cc(C(=O)Nc2cccnc2)cc(C(=O)Nc2cccnc2)c1 [MMV020982, CC(C)(C)c1cc(cc(c1)C(=O)Nc2cccnc2)C(=O)Nc3cccnc3] | 83
24 | CO/C=C(/C(=O)OC)c1ccccc1Oc1cc(Oc2ccccc2C#N)ncn1 [MMV021057, CO\C=C(\C(=O)OC)/c1ccccc1Oc2cc(Oc3ccccc3C#N)ncn2] | 103
25 | Cc1cc(NCC(C)C)c2n[nH]c(-c3ccccc3)c2n1 [MMV021375, CC(C)CNc1cc(nc2c([nH]nc12)-c1ccccc1)C] | 64
26 | Cc1cc(NCCc2ccccc2)nc(NC(=N)Nc2ccc(Cl)cc2)n1 [MMV021660, Cc1cc(NCCc2ccccc2)nc(NC(=N)Nc3ccc(Cl)cc3)n1] | 47
27 | CCN(CC)CCCN1CCN(C(=O)c2cccc(-c3noc(C(F)(F)F)n3)c2)CC1 [MMV022236, CCN(CC)CCCN1CCN(CC1)C(=O)c2cccc(c2)c3noc(n3)C(F)(F)F] | 103
28 | c1ccc2c(c1)CN(CC1CC1)CC1(CCN(Cc3c[nH]c4cnccc34)CC1)O2 [MMV023183, C(C1CC1)N2Cc3ccccc3OC4(CCN(Cc5c[nH]c6cnccc56)CC4)C2] | 93

Row | Structure (SMILES) | viability at 10 µM [%]
29 | Cc1nc(-c2cccc(NCc3ccccc3)c2)[nH]c1C [MMV023227, Cc1nc([nH]c1C)c2cccc(NCc3ccccc3)c2] | 102
30 | Nc1ncc(-c2cn[nH]c2)cc1-c1nc2cc(Cl)cnc2[nH]1 [MMV023370, Nc1ncc(cc1c2nc3cc(Cl)cnc3[nH]2)c4cn[nH]c4] | 88
31 | O=C(NC1CCN(c2ccnc3ccccc23)C1)c1cccc(C(F)(F)F)c1 (stereo not shown) [MMV023388, FC(F)(F)c1cccc(c1)C(=O)NC2CCN(C2)c3ccnc4ccccc34] | 78
32 | NS(=O)(=O)c1cccc(-c2ccc3ncc(N4CCOCC4)nc3c2)c1 [MMV023860, NS(=O)(=O)c1cccc(c1)c2ccc3ncc(nc3c2)N4CCOCC4] | 110
33 | CC(C)(C)c1cc(C(=O)N2CCN(c3nccnc3C#N)CC2)n(Cc2ccccc2)n1 [MMV023949, CC(C)(C)c1cc(C(=O)N2CCN(CC2)c3nccnc3C#N)n(Cc4ccccc4)n1] | 115
34 | O=C(Nc1cccc(-c2ccc(NCCCN3CCCC3)nc2)c1)c1ccccc1 [MMV023953, O=C(Nc1cccc(c1)c2ccc(NCCCN3CCCC3)nc2)c4ccccc4] | 57
35 | c1cncc(NCc2ccc(-c3cc4ccncc4cc3OC3CCNCC3)s2)c1 [MMV023969, C(Nc1cccnc1)c2ccc(s2)c3cc4ccncc4cc3OC5CCNCC5] | 79
36 | COc1ccc(-c2cnc3ccc(N4CCCC4)nn23)cc1OC [MMV023985, COc1ccc(cc1OC)c2cnc3ccc(nn23)N4CCCC4] | 91
37 | NS(=O)(=O)c1cncc(-c2ccc3nccc(-c4cn[nH]c4)c3n2)c1 [MMV024101, NS(=O)(=O)c1cncc(c1)c2ccc3nccc(c4cn[nH]c4)c3n2] | 36
38 | Cc1ccc(S(=O)(=O)n2cc(-c3ccnc(N)c3)c3cc(Br)cnc32)cc1 [MMV024114, Cc1ccc(cc1)S(=O)(=O)n2cc(c3ccnc(N)c3)c4cc(Br)cnc24] | 52
39 | CN(C)CCNC(=O)N1CCCN(c2ncnc3cc(-c4ccccc4)sc23)CC1 [MMV024195, CN(C)CCNC(=O)N1CCCN(CC1)c2ncnc3cc(sc23)c4ccccc4] | 79
40 | O=C(NC1CC1)c1ccc(N2CCC(Cc3ccccc3)CC2)nc1 [MMV024397, O=C(NC1CC1)c2ccc(nc2)N3CCC(Cc4ccccc4)CC3] | 72
41 | O=C(Nc1cccc(Cl)c1)c1cnc(N2CCN(c3ccncc3)CC2)c(Cl)c1 [MMV024406, Clc1cccc(NC(=O)c2cnc(N3CCN(CC3)c4ccncc4)c(Cl)c2)c1] | 63
42 | CN(C(=O)c1cc2c(-c3cncnc3)cccc2[nH]1)c1ccccc1 [MMV024443, CN(C(=O)c1cc2c(cccc2[nH]1)c3cncnc3)c4ccccc4] | 59
43 | Cc1cccc(C(=O)Nc2ccnc(N(C)C3CCN(CC(C)C)CC3)c2)c1 [MMV024829, CC(C)CN1CCC(CC1)N(C)c2cc(NC(=O)c3cccc(C)c3)ccn2] | 56
44 | O=C(Nc1ccc(N2CCNCC2)nc1)c1oc(-c2ccccc2)nc1C(F)(F)F [MMV024937, FC(F)(F)c1nc(oc1C(=O)Nc2ccc(nc2)N3CCNCC3)c4ccccc4] | 77
45 | CS(=O)(=O)c1cccc(-c2cnc3[nH]cc(-c4ccc(CCC(=O)O)cc4)c3c2)c1 [MMV026020, CS(=O)(=O)c1cccc(c1)c2cnc3[nH]cc(c4ccc(CCC(=O)O)cc4)c3c2] | 61
46 | Nc1nccc2ccc(Oc3ccncc3)cc12 [MMV026313, Nc1nccc2ccc(Oc3ccncc3)cc12] | 97
47 | CCn1ncc2c(NC3CCOCC3)c(CNC(=O)c3ccnn3C)c(C)nc21 [MMV026356, CCn1ncc2c(NC3CCOCC3)c(CNC(=O)c4ccnn4C)c(C)nc12] | 80
48 | OCc1ccc(-c2cncc(Nc3cccc(Cl)c3)c2)cc1 [MMV026468, OCc1ccc(cc1)c2cncc(Nc3cccc(Cl)c3)c2] | 88
49 | CC(C)(C)CN1C(=O)C(c2ccccc2)(c2ccccc2)N=C1N [MMV026550, CC(C)(C)CN1C(=NC(C1=O)(c2ccccc2)c3ccccc3)N] | 104
50 | CC(C)(CN)c1nc(-c2ccc(Cl)c(O)c2)c(-c2ccnc(N)n2)[nH]1 [MMV030734, CC(C)(CN)c1nc(c2ccc(Cl)c(O)c2)c([nH]1)c3ccnc(N)n3] | 33
51 | CNC(=O)C1Cc2c([nH]c3cc(Cl)ccc23)C2(CCN(CCc3ccccc3)CC2)N1 (stereo not shown) [MMV031011, CNC(=O)C1Cc2c([nH]c3cc(Cl)ccc23)C4(CCN(CCc5ccccc5)CC4)N1] | 106
52 | FC(F)(F)c1cccc(-c2nc3c(NCc4ccncc4)nccc3[nH]2)c1 [MMV032967, FC(F)(F)c1cccc(c1)c2nc3c(NCc4ccncc4)nccc3[nH]2] | 79
53 | O=C1COCc2ccc(Br)cc2N1Cc1ccc(C(F)(F)F)cc1 [MMV032995, FC(F)(F)c1ccc(CN2C(=O)COCc3ccc(Br)cc23)cc1] | 113
54 | c1ccc(Oc2ccc(-c3cc(N4CCOCC4)[nH]n3)cc2)cc1 [MMV045105, C1CN(CCO1)c2cc(n[nH]2)c3ccc(Oc4ccccc4)cc3] | 33
55 | COc1cc(C(F)(F)F)nc2ccc(C)c(N)c12 [MMV047015, COc1cc(nc2ccc(C)c(N)c12)C(F)(F)F] | 113
